# Laboratory results as given in patent publication US20230090255A1, “MAGL INHIBITOR, PREPARATION METHOD THEREFOR AND USE THEREOF” (LUNAN PHARMACEUTICAL GROUP CORPORATION, priority 2019, published 2023).
# How the values were obtained:
# [1] = tested on: mice pain response induced by hot plate; assay: Mice pain response induced by hot plate; assay type: in vivo, ICR mice; conditions: for pain thresholds of the thermal-stimulus mice, in words: compared with the model group; for Pain threshold: hot plate 55°C
# In short: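 Female ICR mice (20±2 g) dosed intragastrically for 7 consecutive days. Latency to hind-paw licking on a 55±0.5° C hot plate measured at 30, 60, 90 and 120 min after the last dose, with a 60 s cap. Mice with baseline latency <5 s or >30 s, or jumping, excluded.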
# [2] = tested on: mice with inflammatory pain; assay: Pain threshold of mice with inflammatory pain (complete Freund's adjuvant); assay type: in vivo, SD mice; conditions: for pain threshold of the mice with inflammatory pain, in words: compared with the model group; for Pain threshold: complete Freund's adjuvant paw model
# [3] = tested on: reserpine-induced mice migraine; assay: Reserpine-induced mice migraine; assay type: in vivo, ICR mice; conditions: for blood coagulation time, in words / level of 5-HT in the brain tissue, in words / times of the tail suspension activity, in words: compared with the model group; for Blood coagulation time: reserpine 0.2 mg/kg sc mice, 1 h after final administration; for brain tissue 5-HT / Times of tail suspension (struggling times within 2 min): reserpine mice; for Times of tail suspension (struggling times within 2 min): 9th day
# ulcerative colitis mice = assay: Mice ulcerative colitis (DSS); assay type: in vivo, BALB/c mice; conditions: for Total times of hematochezia within the four periods / Colon length / IL-1 content: DSS mice; for Colon length: four periods; for IL-1 content: serum, ELISA; for IL-1 content, in words / colon length, in words / total times of hematochezia, in words: compared with the model group
# [4] = tested on: mice writhing caused by acetic acid; assay: Mice writhing caused by acetic acid; conditions: for latent time, in words / mice writhing times caused by acetic acid, in words: compared with the model group; for Writhing times: 1 h before 0.7% acetic acid ip, within 20 min; for Latent time: time to first writhing; for Inhibition ratio: writhing inhibition
# Experimental: Each compound was prepared into a suspension by 0.5% sodium carboxymethylcellulose respectively, and then set according to the dose, and each administration group was administered intragastrically; the model group was administered intragastrically an equal volume of 0.5% sodium carboxymethylcellulose.
# Mice were intraperitoneally injected with acetic acid to cause a large area and more lasting painful stimuli in deep enterocoelia, causing mice to produce writhing responses. After being administered for 1 h, each dose group was intraperitoneally injected with 0.7% acetic acid-normal saline solution (0.1 ml/10 g).
# The time (pain latent time) that the mice started to appear writhing after being intraperitoneally injected with acetic acid was recorded.
# The writhing response times of each mouse within 20 min were recorded after injecting acetic acid to cause pain, and then, the writhing inhibition ratio of each administration group was calculated.
# Writhing inhibition ratio = [(writhing times of the control group -writhing times of the administration group)/writhing times of the control group] × 100%
# Experimental data is shown by x±s and subjected to variance analysis by SPSS 15.0 software.
# [5] = high dose 30 mg/kg ig 7 d, 30 min after final administration
# [6] = high dose 30 mg/kg ig 7 d, 60 min
# [7] = high dose 30 mg/kg ig 7 d, 90 min
# [8] = high dose 30 mg/kg ig 7 d, 120 min
# [9] = low dose 7.5 mg/kg ig 7 d, 30 min after final administration
# [10] = low dose 7.5 mg/kg ig 7 d, 60 min
# [11] = low dose 7.5 mg/kg ig 7 d, 90 min
# [12] = low dose 7.5 mg/kg ig 7 d, 120 min
# [13] = middle dose 15 mg/kg ig 7 d, 30 min after final administration
# [14] = middle dose 15 mg/kg ig 7 d, 60 min
# [15] = middle dose 15 mg/kg ig 7 d, 90 min
# [16] = middle dose 15 mg/kg ig 7 d, 120 min
# [17] = high dose 30 mg/kg ig once per day, 0 d
# [18] = high dose 30 mg/kg ig once per day, 1 d
# [19] = high dose 30 mg/kg ig once per day, 3 d
# [20] = high dose 30 mg/kg ig once per day, 7 d
# [21] = low dose 7.5 mg/kg ig once per day, 0 d
# [22] = low dose 7.5 mg/kg ig once per day, 1 d
# [23] = low dose 7.5 mg/kg ig once per day, 3 d
# [24] = low dose 7.5 mg/kg ig once per day, 7 d
# [25] = middle dose 15 mg/kg ig once per day, 0 d
# [26] = middle dose 15 mg/kg ig once per day, 1 d
# [27] = middle dose 15 mg/kg ig once per day, 3 d
# [28] = middle dose 15 mg/kg ig once per day, 7 d
structure (smiles),measurement,setting,value
O=C(Nc1cccc(Cl)c1)C1CCN(C(=O)c2cccc(O)c2)CC1 [MAGLZ-II-11],"pain thresholds of the thermal-stimulus mice, in words",[1],significantly extend
same,Pain threshold,[1]; [5],41.43 ± 5.15 s
same,Pain threshold,[1]; [6],46.16 ± 6.63 s
same,Pain threshold,[1]; [7],47.22 ± 5.98 s
same,Pain threshold,[1]; [8],45.49 ± 6.31 s
same,Pain threshold,[1]; [9],37.92 ± 8.83 s
same,Pain threshold,[1]; [10],44.14 ± 7.56 s
same,Pain threshold,[1]; [11],45.93 ± 8.38 s
same,Pain threshold,[1]; [12],43.80 ± 6.12 s
same,Pain threshold,[1]; [13],40.33 ± 8.25 s
same,Pain threshold,[1]; [14],44.87 ± 5.67 s
same,Pain threshold,[1]; [15],46.41 ± 5.36 s
same,Pain threshold,[1]; [16],43.44 ± 5.91 s
same,"pain threshold of the mice with inflammatory pain, in words",[2],significantly extend
same,Pain threshold,[2]; [17],12.88 ± 2.27 s
same,Pain threshold,[2]; [18],7.99±0.90^∗∗∗ s
same,Pain threshold,[2]; [19],9.88±1.34^∗∗∗ s
same,Pain threshold,[2]; [20],11.26±1.82^∗∗∗ s
same,Pain threshold,[2]; [21],12.94 ± 2.41 s
same,Pain threshold,[2]; [22],7.55±1.29^∗∗∗ s
same,Pain threshold,[2]; [23],9.00±0.73^∗∗∗ s
same,Pain threshold,[2]; [24],10.26±1.08^∗∗∗ s
same,Pain threshold,[2]; [25],12.80 ± 2.27 s
same,Pain threshold,[2]; [26],7.73±1.10^∗∗∗ s
same,Pain threshold,[2]; [27],9.47±0.79^∗∗∗ s
same,Pain threshold,[2]; [28],10.93±1.62^∗∗∗ s
same,"blood coagulation time, in words",[3],significantly extend
same,"level of 5-HT in the brain tissue, in words",[3],significantly increase
same,"times of the tail suspension activity, in words",[3],significantly increase
same,Blood coagulation time,[3]; high dose 30 mg/kg ig 10 d,336.88±33.09 S
same,Blood coagulation time,[3]; low dose 7.5 mg/kg ig 10 d,222.5±35.52 S
same,Blood coagulation time,[3]; middle dose 15 mg/kg ig 10 d,326.88±45.9 S
same,brain tissue 5-HT,[3]; high dose 30 mg/kg ig 10 d,3.63 ± 5.34 nmol/g
same,Times of tail suspension (struggling times within 2 min),[3]; high dose 30 mg/kg ig,23.00±3.59
same,brain tissue 5-HT,[3]; low dose 7.5 mg/kg ig 10 d,1.54 ± 0.27 nmol/g
same,Times of tail suspension (struggling times within 2 min),[3]; low dose 7.5 mg/kg ig,14.13±1.89
same,brain tissue 5-HT,[3]; middle dose 15 mg/kg ig 10 d,2.10 ± 0.22 nmol/g
same,Times of tail suspension (struggling times within 2 min),[3]; middle dose 15 mg/kg ig,16.13±1.73
same,Total times of hematochezia within the four periods,ulcerative colitis mice; high dose 30 mg/kg ig,24.80±5.43
same,Colon length,ulcerative colitis mice; high dose 30 mg/kg ig,7.68±0.75 cm
same,IL-1 content,ulcerative colitis mice; high dose 30 mg/kg ig,33.83 ± 7.14 pg/mL
same,Total times of hematochezia within the four periods,ulcerative colitis mice; low dose 7.5 mg/kg ig,32.00±4.94
same,Colon length,ulcerative colitis mice; low dose 7.5 mg/kg ig,6.88±0.89 cm
same,IL-1 content,ulcerative colitis mice; low dose 7.5 mg/kg ig,44.57 ± 10.32 pg/mL
same,Total times of hematochezia within the four periods,ulcerative colitis mice; middle dose 15 mg/kg ig,27.20±5.39
same,Colon length,ulcerative colitis mice; middle dose 15 mg/kg ig,7.26±0.67 cm
same,IL-1 content,ulcerative colitis mice; middle dose 15 mg/kg ig,41.40 ± 9.50 pg/mL
same,"IL-1 content, in words",ulcerative colitis mice,decrease
same,"colon length, in words",ulcerative colitis mice,significantly increase
same,"total times of hematochezia, in words",ulcerative colitis mice,reduce
same,"latent time, in words",[4],extend
same,"mice writhing times caused by acetic acid, in words",[4],significantly decrease
same,Writhing times,[4]; high dose 30 mg/kg ig,13.6±13.1
same,Latent time,[4]; high dose 30 mg/kg ig,467.8 ± 175.6 s
same,Inhibition ratio,[4]; high dose 30 mg/kg ig,65.4%
same,Writhing times,[4]; low dose 7.5 mg/kg ig,23.4±11.7
same,Latent time,[4]; low dose 7.5 mg/kg ig,379.7 ± 129.3 s
same,Inhibition ratio,[4]; low dose 7.5 mg/kg ig,40.5%
same,Writhing times,[4]; middle dose 15 mg/kg ig,17.5±9.6
same,Latent time,[4]; middle dose 15 mg/kg ig,408.4 ± 128.2 s
same,Inhibition ratio,[4]; middle dose 15 mg/kg ig,55.5%
O=C(Nc1cccc(Cl)c1)C1CCN(C(=O)c2cc3cc(F)ccc3[nH]2)CC1 [MAGLZ-II-18 (a)],"pain thresholds of the thermal-stimulus mice, in words",[1],significantly extend
same,Pain threshold,[1]; [5],40.86 ± 7.17 s
same,Pain threshold,[1]; [6],46.29 ± 5.27 s
same,Pain threshold,[1]; [7],48.70 ± 5.73 s
same,Pain threshold,[1]; [8],47.04 ± 5.54 s
same,Pain threshold,[1]; [9],34.62 ± 6.65 s
same,Pain threshold,[1]; [10],40.29 ± 6.73 s
same,Pain threshold,[1]; [11],43.98 ± 6.55 s
same,Pain threshold,[1]; [12],43.56 ± 6.01 s
same,Pain threshold,[1]; [13],37.51 ± 6.07 s
same,Pain threshold,[1]; [14],42.42 ± 5.90 s
same,Pain threshold,[1]; [15],45.86 ± 7.09 s
same,Pain threshold,[1]; [16],44.38 ± 5.44 s
same,"pain threshold of the mice with inflammatory pain, in words",[2],significantly extend
same,Pain threshold,[2]; [17],12.85 ± 2.26 s
same,Pain threshold,[2]; [18],7.49±0.79^∗∗∗ s
same,Pain threshold,[2]; [19],9.35±1.2^∗∗∗ s
same,Pain threshold,[2]; [20],10.37±1.59^∗∗∗ s
same,Pain threshold,[2]; [21],12.73 ± 2.43 s
same,Pain threshold,[2]; [22],6.97±0.87^∗∗ s
same,Pain threshold,[2]; [23],8.44±1.03^∗∗∗ s
same,Pain threshold,[2]; [24],9.56±0.92^∗∗ s
same,Pain threshold,[2]; [25],12.86 ± 2.25 s
same,Pain threshold,[2]; [26],7.26±0.70^∗∗∗ s
same,Pain threshold,[2]; [27],9.01±0.68^∗∗∗ s
same,Pain threshold,[2]; [28],10.37±1.49^∗∗∗ s
same,"blood coagulation time, in words",[3],significantly extend
same,"level of 5-HT in the brain tissue, in words",[3],significantly increase
same,"times of the tail suspension activity, in words",[3],significantly increase
same,Blood coagulation time,[3]; high dose 30 mg/kg ig 10 d,252.25±30.99 S
same,Blood coagulation time,[3]; low dose 7.5 mg/kg ig 10 d,137.25±67.22 S
same,Blood coagulation time,[3]; middle dose 15 mg/kg ig 10 d,191.50±63.66 S
same,brain tissue 5-HT,[3]; high dose 30 mg/kg ig 10 d,2.76 ± 0.34 nmol/g
same,Times of tail suspension (struggling times within 2 min),[3]; high dose 30 mg/kg ig,18.50±2.00
same,brain tissue 5-HT,[3]; low dose 7.5 mg/kg ig 10 d,1.21 ± 0.17 nmol/g
same,Times of tail suspension (struggling times within 2 min),[3]; low dose 7.5 mg/kg ig,11.38±2.67
same,brain tissue 5-HT,[3]; middle dose 15 mg/kg ig 10 d,1.65 ± 0.18 nmol/g
same,Times of tail suspension (struggling times within 2 min),[3]; middle dose 15 mg/kg ig,13.38±2.67
same,Total times of hematochezia within the four periods,ulcerative colitis mice; high dose 30 mg/kg ig,27.90±7.28
same,Colon length,ulcerative colitis mice; high dose 30 mg/kg ig,7.72±0.92 cm
same,IL-1 content,ulcerative colitis mice; high dose 30 mg/kg ig,36.22 ± 4.31 pg/mL
same,Total times of hematochezia within the four periods,ulcerative colitis mice; low dose 7.5 mg/kg ig,33.60±5.83
same,Colon length,ulcerative colitis mice; low dose 7.5 mg/kg ig,6.51±0.90 cm
same,IL-1 content,ulcerative colitis mice; low dose 7.5 mg/kg ig,47.32 ± 9.06 pg/mL
same,Total times of hematochezia within the four periods,ulcerative colitis mice; middle dose 15 mg/kg ig,29.90±8.95
same,Colon length,ulcerative colitis mice; middle dose 15 mg/kg ig,7.06±1.20 cm
same,IL-1 content,ulcerative colitis mice; middle dose 15 mg/kg ig,43.77 ± 10.69 pg/mL
same,"IL-1 content, in words",ulcerative colitis mice,decrease
same,"colon length, in words",ulcerative colitis mice,significantly increase
same,"total times of hematochezia, in words",ulcerative colitis mice,reduce
same,"latent time, in words",[4],extend
same,"mice writhing times caused by acetic acid, in words",[4],significantly decrease
same,Writhing times,[4]; high dose 30 mg/kg ig,17.8±11.1
same,Latent time,[4]; high dose 30 mg/kg ig,422.4 ± 137.9 s
same,Inhibition ratio,[4]; high dose 30 mg/kg ig,54.7%
same,Writhing times,[4]; low dose 7.5 mg/kg ig,24.2±8.5
same,Latent time,[4]; low dose 7.5 mg/kg ig,355.5 ± 136.5 s
same,Inhibition ratio,[4]; low dose 7.5 mg/kg ig,38.4%
same,Writhing times,[4]; middle dose 15 mg/kg ig,20.8±12.5
same,Latent time,[4]; middle dose 15 mg/kg ig,380.7 ± 130.7 s
same,Inhibition ratio,[4]; middle dose 15 mg/kg ig,47.1%
